This is an account of results in patent US20130281504A1, “Reduction of Microglia-Mediated Neurotoxicity by KCa3.1 Inhibition” (THE REGENTS OF THE UNIVERSITY OF CALIFORNIA, priority 2010, published 2013).

One series has as its system microglia. Kind of series: AβO-induced microglia proliferation/activation (cell number). In kind it is cell-based, mouse. The note with it: soluble AD hippocampus extracts.
A further series relates to p38MAPK. Kind of series: p38MAPK phosphorylation in microglia (Western blot). Format: cell-based, mouse. Particulars: doxycycline 20 μM, TRAM-34 1 μM, FIG. 2D. The protocol: Primary microglia cultures derived from newborn C57BL/6J mice were prepared from mixed glia cultures with the “shaking off” method described by Maezawa, I., et al.; (2006) FASEB J 20, 797-799. […] To obtain conditioned medium (CM) for treating neurons, microglia were first cultured in 24-well culture plates at a density of 1.3×10^5 cells/cm^2 for 24 hrs in DMEM with 10% fetal bovine serum (DMEM10). Cultures were washed extensively and changed to the Neurobasal medium with B27 supplement (NB/B27, Invitrogen) without serum and cultured for another 24 hrs. The NB/B27-based microglia CMs were collected, briefly centrifuged, and used immediately or frozen for future uses.
To obtain lysates, cells or tissues were washed with ice-cold PBS and incubated with a buffer containing 50 mmol/L Tris-HCl (pH 7.4), 150 mmol/L NaCl, 2% SDS, proteinase inhibitor cocktail (Sigma), and phosphatase inhibitor cocktail (Sigma). Lysates were briefly sonncated and cleared by centrifugation at 50,000 rpm for 10 min. Equivalent amounts of protein were analyzed by Tris/HCL gel electrophoresis. Proteins were transferred to polyvinylidene difluoride membranes and probed with antibodies. Visualization was performed using enhanced chemiluminescence (ECL, Amersham Pharmacia, Piscataway, N.J.).
The following primary antibodies (dilutions) were used: anti-p38MAPK (1:1000, Cell Signaling Technology, Boston, Mass.), anti-phospho-p38MAPK (1:1000, Cell Signaling Technology), anti-Synaptophysin (1:1000, Abcam), anti-PSD95 (1:1000, cell signaling), anti-GRIP 1 (1:1000, UpState), anti-MAP2 (1:1000, Chemicon), anti-acetylated α-tubulin (1:2000, Zymed), and anti-β-actin (1:3000, Sigma). Secondary antibodies were HRP-conjugated anti-rabbit, anti-goat, or anti-mouse antibody (1:3000 Amersham).
(In general: A western blot detects proteins with antibodies after separation by electrophoresis.)

In the next series the target is T1, KCa3.1 (Mus musculus, UniProt O89109).
T1 construct: endogenous in cells; host or cells: primary mouse microglia harvested from the astrocyte feeder layer
T1 sequence (O89109 whole entry): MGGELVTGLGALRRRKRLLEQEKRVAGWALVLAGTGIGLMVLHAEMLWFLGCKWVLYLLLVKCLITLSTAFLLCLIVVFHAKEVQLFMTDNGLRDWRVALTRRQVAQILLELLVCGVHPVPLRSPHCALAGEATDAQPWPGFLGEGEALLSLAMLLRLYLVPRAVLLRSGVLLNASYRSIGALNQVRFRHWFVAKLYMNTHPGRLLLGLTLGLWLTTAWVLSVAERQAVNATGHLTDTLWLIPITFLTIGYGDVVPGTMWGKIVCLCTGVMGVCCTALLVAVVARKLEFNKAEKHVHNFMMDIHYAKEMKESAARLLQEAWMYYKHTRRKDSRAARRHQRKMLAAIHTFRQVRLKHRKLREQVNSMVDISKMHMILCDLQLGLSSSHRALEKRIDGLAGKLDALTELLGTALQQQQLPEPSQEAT
Description: Whole-cell patch-clamp of mouse microglia KCa currents. The note with it: 1 μM TRAM-34; voltage-ramps −120 to +40 mV; FIG. 4A. In kind it is cell-based. The protocol:
Microglia, that were “floating off” from their feeding astrocyte layer, were harvested with a pipette, washed, attached to poly-L-lysine coated cover-slips, and then studied in the whole-cell mode of the patch-clamp technique with an EPC-10 HEKA amplifier. The pipette solution contained 145 mM K^+ aspartate, 2 mM MgCl2, 10 mM HEPES, 10 mM K2EGTA and 8.5 mM CaCl2 (1 μM free Ca^2+), pH 7.2, 290 mOsm. To reduce chloride “leak” currents, we used a Na^+ aspartate external solution containing 160 mM Na^+ aspartate, 4.5 mM KCl, 2 CaCl2, 1 mM MgCl2, 5 mM HEPES, pH 7.4, 300 mOsm. K^+ currents were elicited with voltage ramps from −120 to 40 mV of 200 ms duration applied every 10 s. […] Cell capacitance, a direct measurement of cell surface area, was continuously monitored during recordings. KCa3.1 current density was determined by dividing the TRAM-34-sensitive slope conductance by the cell capacitance.
In general terms: In patch-clamp work, channel activity is measured electrically.

The test system of another series is hippocampal neurons. Kind of series: Indirect neurotoxicity of conditioned medium from AβO-treated microglia on hippocampal neurons. Particulars: 25% CM, 24 hrs. In kind it is cell-based, mouse.
The subject of series [1] is middle cerebral artery occlusion (MCAO). Kind of series: MCAO with 7 days of reperfusion, treatment started 2 h after reperfusion. In kind it is in vivo, rat. The note with it: 10 mg/kg twice daily 7 days from 2 h after reperfusion. The text has this:
Adult male Wistar rats weighing 160-180 g were purchased from Charles River (Wilmington, Mass.), acclimatized to the new vivarium for 5-7 days and used for the surgery when they weighed 200-230 g. Rats were anesthetized using box induction with 5% isoflurane and then maintained on 0.5%-1.5% isoflurane in medical grade oxygen via a facemask. In order to assure consistent reduction of cerebral blood flow (CBF) throughout the procedure, we affixed a small hand-made adaptor for the Laser Doppler probe (Moor Instruments, Wilmington, Del.) to the surface of the skull. The center of the adapter was 5 mm lateral to the central fusion line and 2.5 mm posterior to bregma. […] Neurological deficits were scored according to a 4-score test and a tactile and/or proprioceptive limb-placing test as follows: 1) 4-score test (higher score for more severe neurological deficits): 0=no apparent deficit; 1=contralateral forelimb is consistently flexed during suspension by holding the tail; 2=decreasing grip ability on the contralateral forelimb while tail pulled; 3=spontaneous movement in all directions but circling to contralateral side when pulled by the tail; 4=spontaneous contralateral circling or depressed level of consciousness. […] The paw was pulled down and away from the platform edge, and the ability to retrieve and place the paw on the table surface upon sudden release was assessed. […]

Series [2] can be described thus: Physiological parameters by I-STAT in venous blood of MCAO rats. In kind it is in vivo, rat. The note with it: After Reperfusion, ±SD.
For series [3], the system named is experimental autoimmune encephalomyelitis (EAE). Particulars: mice; cited from earlier work.

Description for hippocampal neurons: Hippocampal neuronal cultures were prepared from newborn wild type C57BL/6J mice according to the method of Xiang et al (26). Neurons were cultured in NB/B27 at a density of 2.5×10^5 cells/well in 12-well plates or 8×10^5 cells/well in 6-well plates for at least 14 days before they were treated with microglia CM.
Hippocampal neurons were prepared as described above and were plated onto 96-well plate at a density of 6×10^4 cells/well and cultured for 14 days. CM from microglia cultures was added onto neurons with indicated dilutions, and cultures were incubated for 24 hrs.
For immunofluorescent staining of neurons, cultures were fixed in 4% paraformaldehyde and stained with anti-PSD95 (1:200, Cell Signaling), anti-MAP2 (1:500, Chemicon) and anti-acetylated α-tubulin (1:250, Zymed). […] Immunostained images were observed under a Nikon Eclipse E600 microscope and photographed by a digital camera (SPOT RTke, SPOT Diagnostics, Sterling Heights, Mich.).
For quantification of the PSD95-immunoreactive puncta along the dendrites, photomicrographs of PSD95 immunostained cultures were randomly taken from each culture condition. The images were transformed to 8 bit gray scale and analyzed with the Image J program. The number of puncta in each photomicrograph was counted and normalized by dendritic length. The photography and analysis were conducted in an investigator-blinded manner

As to `Clc1ccccc1C(c1ccccc1)(c1ccccc1)n1cccn1` [TRAM-34, 1-[(2-chlorophenyl)diphenylmethyl]-1H-pyrazole], in the series on microglia, the “microglia activation / mitogenic effect induced by human brain AβO” value is “blocked”. The “LPS-induced p38MAPK phosphorylation” value with p38MAPK (LPS 100 ng/ml, 30 minutes) is given as “no significant difference”. Further, the “AβO-induced p38MAPK phosphorylation” value with p38MAPK (microglia treated 30 minutes) is recorded as “no significant difference”. On KCa3.1, the “sensitivity of voltage-independent current component” value is recorded as “sensitive”. Besides, the “dendritic morphology of neurons after CM from AβO-treated microglia co-incubated with inhibitor” value with hippocampal neurons is “did not alter the dendritic morphology”. In addition, the “levels of Ac-TN, MAP2, PSD95, and GRIP1 after CM from AβO-treated microglia co-incubated with inhibitor” value with hippocampal neurons (Western blot) is recorded as “did not cause significant decreases”. Further, in the series on hippocampal neurons (microglia co-treated with 20 μM doxycycline or 1 μM TRAM-34, FIG. 6D), the “AβO-CM-induced reduction of PSD95-immunoreactive puncta” value was “prevented”. In addition, in series [1], the “amount of activated (ED1+) microglia/macrophages in infarcted hemisphere” value was “reduced”. Besides, the “mean infarct area, % of ipsolateral triphenyltetrazolium chloride positive hemisphere area” value in series [1] (control 18.8±3.5%, mean±SEM, P=0.007) is 6.6±1.9%. In series [2] (TRAM-34 10 mg/kg), the BUN is on record as 12.8 ± 7.2 mg/dL, the Glucose is given as 179.2 ± 48.2 mg/dL and the “Na^+” value is 134.4 ± 2.3 mmol/L. For the same molecule, in series [2] (TRAM-34 40 mg/kg), the BUN turned out to be 22.2 ± 4.0 mg/dL, the Glucose was 171.8 ± 54.3 mg/dL, the “HCO3^−” value worked out at 32.5 ± 5.7 mmol/L and the pH is reported as 7.4 ± 0.13. Also, the “experimental autoimmune encephalomyelitis (EAE)” value in series [3] is “treats”.
